The text below walks through data of patent US20230103444A1 (The Regents of the University of Colorado, a Body Corporate, priority 2020, published 2023).

Read-outs that look alike come from different tables or passages of the source. A value given as a limit tells only on which side of the number the result lay.

Data set [1] concerns HCT116 tumor organoids. The data set can be described thus: Tumor organoid cytotoxicity (CellTiter-Glo 3D). The note with it: Homo sapiens. Format: cell-based, human. The procedure: (§1) Cell based cytotoxicity dose response and combination studies. […] Plates were then incubated for 3 days before treatment.
Cell Line Tumor Organoid Culture.
Tumor Organoid Cytotoxicity.
On the technique in general: In ATP-based viability assays light output follows the ATP content of the culture.

Data set [2] concerns SW620 tumor organoids. The data set can be described thus: Synergy studies with SN38 (LOEWE synergy scores). In kind it is cell-based, human. The note with it: killing SW620 tumor organoids. On the procedure: as §1
(e.g., synergy score 20 corresponds to 20% of response beyond expectation). According to our experience, the synergy scores near 0 gives limited confidence on synergy or antagonism.
When the synergy score is: • Less than −10: the interaction between two drugs is likely to be antagonism; • From −10 to 10: the interaction between two drugs is likely to be additivity; • Larger than 10: the interaction between two drugs is likely to be synergy.

A short description of data set [3]: Mouse liver microsome stability. The note with it: CD-1, mouse, liver microsomes. A general note: Liver microsomes are a subcellular fraction often used to study metabolism.
For data set [4], the system named is SW620 tumor organoids. Nature of the data set: Tumor organoid cytotoxicity (CellTiter-Glo 3D). The note with it: Homo sapiens.
A short description of data set [5]: Human microsomal stability. Format: in vitro ADME. The note with it: human microsomes, Table 6, read-out: Microsomal stability Human t1/2.
Setting [6] is: HCT-116, 72 h, Table 6, read-out: 3 D Cytotoxicity 72 hr IC50 (μM) HCT116.
[7] abbreviates: HCT-116, single agent, Table 4A, read-out: Tumor Organoid Cytotoxicity IC50 (μM) HCT116.
The mark [8] stands for this setting: pH 7.4, In Vitro Half-Life (Min), second series, different liver microsome preparation.
The mark [9] stands for this setting: SW-620, 72 h, read-out: 3 D Cytotoxicity 72 hr IC50 (μM) SW620.
Where [10] appears, read: SW-620, read-out: Tumor Organoid Cytotoxicity IC50 (μM) SW620.
Where [11] appears, read: pH 7.4, Microsomal stability Mouse t1/2 (min), Table 6.
Where [12] appears, read: SW-620, read-out: IC50 of cytotoxicity in SW620 cells.

`Cc1cc(Nc2ccc(NC(=O)c3c[nH]c4ncccc34)cc2)nc(N2CCCC2)n1` [Compound 6.9, N-(4-((6-methyl-2-(pyrrolidin-1-yl)pyrimidin-4-yl)amino)phenyl)-1H-pyrrolo[2,3-b]pyridine-3-carboxamide]: the 50% inhibitory concentration (IC50) (as a rule, the point on the concentration scale where inhibition reaches its midpoint) in data set [1] (setting [6]) stood at 19.7 µM; in data set [1] (setting [7]), 19.6 µM; in data set [4] (setting [9]), 8.3 µM; in data set [4] (setting [10]) it was 8.1 µM. Further, in data set [2], the “synergism with irinotecan (and SN38), in words” value is reported as “synergism”. The half-life at 10 μM in data set [3] (setting [8]) was determined as 295 min.

With `Cc1cc(Nc2ccc(NC(=O)Cc3c(C)[nH]c4ccccc34)cc2)nc(N2CCCC2)n1` [Compound 6.21, 2-(2-methyl-1H-indol-3-yl)-N-(4-((6-methyl-2-(pyrrolidin-1-yl)pyrimidin-4-yl)amino)phenyl)acetamide], the half-life in data set [5] amounted to 43.8 min. Also, in data set [3] (setting [11]), the half-life at 10 μM amounted to 47.8 min. The IC50 in data set [4] (setting [9]) is 1.7 µM; in data set [4] (setting [12]), less than 10 µM; in data set [4] (setting [10]) it was 1.6 µM.

Consider `Cc1cc(Nc2ccc(NC(=O)Cc3cccc4ccccc34)cc2)nc(N2CCCC2)n1` [Compound 6.16, N-(4-((6-methyl-2-(pyrrolidin-1-yl)pyrimidin-4-yl)amino)phenyl)-2-(naphthalen-1-yl)acetamide], for which, in data set [5], the half-life stood at 59.5 min. Also, the half-maximal inhibitory concentration (IC50) in data set [1] (setting [6]) is 2.4 µM; in data set [1] (setting [7]) it was 2.43 µM; in data set [4] (setting [12]) it was less than 10 µM. The half-life at 10 μM in data set [3] (setting [11]) was 55.5 min.

For the compound `Cc1cc(Nc2ccc(NC(=O)Cc3c[nH]c4cc(Cl)ccc34)cc2)nc(N2CCCC2)n1` [Compound 6.18, 2-(6-chloro-1H-indol-3-yl)-N-(4-((6-methyl-2-(pyrrolidin-1-yl)pyrimidin-4-yl)amino)phenyl)acetamide], the half-life in data set [5] is 88.1 min. Besides, the IC50 in data set [1] (setting [6]) is 3 µM; in data set [1] (setting [7]), 2.95 µM; in data set [4] (setting [9]) it was 1.5 µM; in data set [4] (setting [12]) it was less than 10 µM; in data set [4] (setting [10]), 1.4 µM. The compound also returned a half-life at 10 μM in data set [3] (setting [11]) of 141 min.

For `Cc1cc(Nc2ccc(NC(=O)Cc3cccs3)cc2)nc(N2CCOCC2)n1` [Compound 6.15, N-(4-((6-methyl-2-morpholinopyrimidin-4-yl)amino)phenyl)-2-(thiophen-2-yl)acetamide], the concentration for half-maximal inhibition (IC50) in data set [1] (setting [6]) turned out to be 19.7 µM; in data set [1] (setting [7]), 19.7 µM; in data set [4] (setting [9]), 13.1 µM; in data set [4] (setting [10]), 16.4 µM. For the same compound, in data set [3] (setting [8]), the half-life at 10 μM was determined as 22.7 min.
